Data from patent US11891628B2, “Method for biomimetic culture of urothelial cells and uses thereof” (China Medical University, priority 2018, dated 2024).

Assays:
[1] = tested on: MBT-2-luc orthotopic graft bladder tumor; test: Orthotopic MBT-2-luc graft bladder tumor mouse model
Protocol: The tumor bearing mice were enrolled when tumor bioluminescent signal reached 10^5 total plex and treated according to the treatment scheme (A).
Tumors from mice of different treatment groups were harvested, processed and sectioned for tumor cell Ki-67 IHC and TUNEL assay. Tumor sections were evaluated for cell proliferation 45 with Ki-67 IHC staining (A). Ki-67 positive cells on tumor sections were counted and quantified from mice of 3 independent experiments (B). Tumor sections were stained with TUNEL (FITC) and observed under a fluorescent microscope (C). DAPI was used for nuclear staining. TUNEL positive cells on tumor sections were counted and quantified from mice of 3 independent experiments (D). Values are expressed as mean±standard error of the mean (n=3). *p<0.05; **p<0.01; ***p<0.001, by Student's t test. Scale bar, 50 μm.
Tumors from mice given different treatments were analyzed by IHC for lymphocyte and NK cell infiltration. Representative images of anti-CD4 (A), CD8 (B) and NKG2D (C) IHC staining on tumor sections. Quantification of CD4+ T lymphocytes (D), CD8+T lymphocytes (E) and NKG2D+ NK cells (F) in tumors for each treatment group by counting the positive cells in four randomly selected HPFs among 3 mice in each group, and data were expressed as the means±SD. Error bars represent SD. *p<0.05; **p<0.01; ***p<0.001, by Student's t test.
Female C3H/HeJ 9-week-old mice were used to establish the intramural orthotopic model. MBT-2 murine urothelial carcinoma cells stably expressing luciferase gene (MBT-2-luc) were intramuscularly injected to mouse bladder walls and capture tumor imaged by Xenogen IVIS 200 once per week. The mice are divided control and experiment groups when tumors are reached around 1×10^5 p/s total flux in bioluminescence imaging. The tumor bearing mice were divided into 4 treatment groups: (i). Vehicle control, (ii). Xenogeneic urothelial cell: intravesical of instillation xenogeneic urothelial cells (1×10^6 cells), once a week, day 3 for 4 weeks, (iii). […] A 24-gauge catheter is introduced into the lumen of the bladder through the urethra. Xenogeneic urothelial cells, 1×10^6 in a 100 μl suspension is then injected into the bladder. To prevent voiding of the xenogeneic urothelial cells, the catheter is held in place for at least 40 minutes with the injection syringe attached. The catheter is removed before the mouse recovered from anesthesia. The responses of mice are analyzed on BLI total flux intensity changes from the baseline.

[2] = tested on: BBN-induced bladder tumor; test: BBN-induced bladder tumor mouse model; format: in vivo, mice
Protocol: FIG. 9. […] Tumor-bearing mice were treated according to the experimental scheme (A). Representative photographs of the gross tumors from mice with different treatments (B). Tumor weights of the different treatment groups (C) (mean±SD, at least 9 mice from 3 independent experiments). Representative H&E stained images of tumors of different treatment groups (D). Histograms of the pathological analysis for the proportions of hyperplastic and neoplastic changes in bladder H&E stained section of mice with different treatments (E). *p<0.05; **p<0.01 by Student's t test.
For BBN-induced bladder tumor formation, a 0.05% concentration of BBN (TCI America, Portland, OR) was dissolved in drinking water, and BBN-containing water in a dark bottle was provided to 8-10 week old female C57BL/6 mice ad libitum for 10-20 weeks until hematuria score is over 2+ (Arkray Aution Sticks urine strip) as a sign of bladder tumor formation. […]
To test the anti-tumor effects of intravesical xenogeneic cell therapy in combination with chemotherapeutic agents in delaying tumor progression, BBN-induced tumor mouse model, which simulates the human bladder tumorigenesis from hyperplasia, carcinoma in situ (CIS) to invasive carcinoma was used. […] The progression of BBN-induced bladder tumors in the treatment groups and control group was assessed by macroscopic and histopathological examination from harvested bladders. […]

[3] = IHC on tumor sections, vs vehicle

Gemcitabine plus cisplatin [GC]
NKG2D+ NK cell infiltration in tumors [1, 3]: not observed | tumor CD4+ T cell infiltration [1, 3]: increased | tumor CD8+ T cell infiltration [1, 3]: increased | tumor growth ([1]; bioluminescence, vs vehicle-treated groups, 4 weeks treatment): significantly decreased | tumor weight ([2]; harvested bladders after 4 weeks treatment): significantly reduced | proportion of mice progressed to invasive carcinoma ([2]; histopathological analysis of H&E sections): significantly lower
